Numbers after ± are expanded uncertainties.
Test: refractive index (Na D-line) (dimensionless); xn = mol fraction of the nth substance listed
Settings: 101 kPa, Liquid, Standard Abbe refractometry

CCCCn1cc[n+](C)c1.F[B-](F)(F)F [1-butyl-3-methylimidazolium tetrafluoroborate] + CO
refractive index
Settings	288.15 K	298.15 K	308.15 K	318.15 K
x1 = 0.0113	1.337 ± 0.0005	1.3325 ± 0.0005	1.3285 ± 0.0005	1.3246 ± 0.0005
x1 = 0.0235	1.3428 ± 0.0005	1.3381 ± 0.0005	1.3343 ± 0.0005	1.3305 ± 0.0005
x1 = 0.0366	1.3481 ± 0.0005	1.3435 ± 0.0005	1.3398 ± 0.0005	1.3365 ± 0.0005
x1 = 0.0509	1.3539 ± 0.0005	1.3488 ± 0.0005	1.3453 ± 0.0005	1.3419 ± 0.0005
x1 = 0.0845	1.364 ± 0.0005	1.3595 ± 0.0005	1.3562 ± 0.0005	1.3536 ± 0.0005
x1 = 0.1254	1.3729 ± 0.0005	1.369 ± 0.0005	1.3657 ± 0.0005	1.3629 ± 0.0005
x1 = 0.1771	1.3827 ± 0.0005	1.3788 ± 0.0005	1.3754 ± 0.0005	1.3726 ± 0.0005
x1 = 0.2441	1.3912 ± 0.0005	1.3877 ± 0.0005	1.3845 ± 0.0005	1.3813 ± 0.0005
x1 = 0.3338	1.3999 ± 0.0005	1.3966 ± 0.0005	1.3934 ± 0.0005	1.3904 ± 0.0005
x1 = 0.4626	1.4082 ± 0.0005	1.4052 ± 0.0005	1.4022 ± 0.0005	1.3993 ± 0.0005
x1 = 0.5482	1.4123 ± 0.0005	1.4093 ± 0.0005	1.4064 ± 0.0005	1.4036 ± 0.0005
x1 = 0.6589	1.4163 ± 0.0005	1.4135 ± 0.0005	1.4107 ± 0.0005	1.408 ± 0.0005
x1 = 0.8037	1.4204 ± 0.0005	1.4177 ± 0.0005	1.415 ± 0.0005	1.4124 ± 0.0005
x1 = 1	1.4243 ± 0.0005	1.4217 ± 0.0005	1.419 ± 0.0005	1.4164 ± 0.0005

CCn1cc[n+](C)c1.F[B-](F)(F)F [1-ethyl-3-methylimidazolium tetrafluoroborate] + CO
refractive index
Settings	288.15 K	298.15 K	308.15 K	318.15 K
x1 = 0.0136	1.3368 ± 0.0005	1.3324 ± 0.0005	1.3286 ± 0.0005	1.3247 ± 0.0005
x1 = 0.0283	1.3419 ± 0.0005	1.3376 ± 0.0005	1.3337 ± 0.0005	1.33 ± 0.0005
x1 = 0.044	1.3466 ± 0.0005	1.3423 ± 0.0005	1.3389 ± 0.0005	1.3357 ± 0.0005
x1 = 0.0615	1.3515 ± 0.0005	1.3474 ± 0.0005	1.3439 ± 0.0005	1.3402 ± 0.0005
x1 = 0.101	1.3604 ± 0.0005	1.3566 ± 0.0005	1.353 ± 0.0005	1.3495 ± 0.0005
x1 = 0.1485	1.3697 ± 0.0005	1.3659 ± 0.0005	1.3627 ± 0.0005	1.3592 ± 0.0005
x1 = 0.2073	1.3785 ± 0.0005	1.3749 ± 0.0005	1.3715 ± 0.0005	1.3685 ± 0.0005
x1 = 0.2817	1.3865 ± 0.0005	1.383 ± 0.0005	1.38 ± 0.0005	1.3768 ± 0.0005
x1 = 0.379	1.3937 ± 0.0005	1.3905 ± 0.0005	1.3874 ± 0.0005	1.3845 ± 0.0005
x1 = 0.5111	1.4008 ± 0.0005	1.3978 ± 0.0005	1.3949 ± 0.0005	1.3922 ± 0.0005
x1 = 0.5959	1.404 ± 0.0006	1.4012 ± 0.0006	1.3985 ± 0.0006	1.3958 ± 0.0006
x1 = 0.7027	1.4075 ± 0.0006	1.4048 ± 0.0006	1.4022 ± 0.0006	1.3996 ± 0.0006
x1 = 0.8297	1.4109 ± 0.0006	1.4082 ± 0.0006	1.4056 ± 0.0006	1.4031 ± 0.0006
x1 = 1	1.4143 ± 0.0006	1.4118 ± 0.0006	1.4092 ± 0.0006	1.4067 ± 0.0006
